These results are taken from ChEMBL document CHEMBL1275339, “Anti-leishmanial and anti-trypanosomal activities of 1,4-dihydropyridines: In vitro evaluation and structure-activity relationship study” (Bioorg Med Chem, 2010).

One data set relates to Leishmania braziliensis. The experiment in a line: Antileishmanial activity against promastigotes of Leishmania braziliensis MHO/BR/75/M2903 after 18 hrs by MTT assay. Particulars: MHO/BR/75/M2903, 18 h. It is filed as functional, organism-based.
For a further data set, the system named is Leishmania major. The experiment in a line: Antileishmanial activity against promastigotes of Leishmania major MHOM/1L/80/Fredlin after 18 hrs by MTT assay. It counts as functional, organism-based. A general note: Tetrazolium assays rely on reduction of a dye to a coloured formazan, in cell work by metabolically active cells.
A short description of data set [1]: Cytotoxicity in BALB/c mouse erythrocytes assessed as hemolysis at 50 uM after 3 hrs. It is filed as cell-based. Particulars: erythrocyte.
Data set [2] deals with Leishmania chagasi. Description: Antileishmanial activity against promastigotes of Leishmania chagasi MHOM/BR/1972/LD after 18 hrs by MTT assay. It counts as functional, organism-based.
Data set [3] is described as follows: Selectivity index, ratio of IC50 for rhesus monkey LLC-MK2 cells to IC50 for trypomastigotes of Trypanosoma cruzi. It counts as toxicity, cell-based. Particulars: read-out: Selectivity Index.
In data set [4] the test system is Leishmania chagasi. The experiment in a line: Antileishmanial activity against amastigotes of Leishmania chagasi MHOM/BR/1972/LD after 24 hrs by MTT assay. It counts as functional, organism-based.
For another data set, the system named is Leishmania amazonensis. Description: Antileishmanial activity against promastigotes of Leishmania amazonensis WHO/BR/00/LT0016 after 18 hrs by MTT assay. Particulars: WHO/BR/00/LT0016, 18 h. It is filed as functional, organism-based.
The next data set relates to LLC-MK2. The experiment in a line: Cytotoxicity against rhesus monkey LLC-MK2 cells after 48 hrs by MTT assay. It is filed as cell-based, Macaca mulatta.
Data set [5] has as its system Trypanosoma cruzi. Description: Antitrypanosomal activity against trypomastigotes of Trypanosoma cruzi infected in rhesus monkey LLC-MK2 cells after 48 hrs by MTT assay. It counts as functional, organism-based. Particulars: LLC-MK2, 48 h.
The nature of data set [6]: Selectivity index, ratio of IC50 for rhesus monkey LLC-MK2 cells to IC50 for amastigotes of Leishmania chagasi MHOM/BR/1972/LD. Particulars: read-out: Selectivity Index. It counts as toxicity, cell-based.
For data set [7], the system named is Trypanosoma cruzi. Description: Antitrypanosomal activity against epimastigotes of Trypanosoma cruzi. It is filed as functional, organism-based.
The mark [8] stands for this setting: Leishmania chagasi, MHOM/BR/1972/LD, 24 h.

For orientation: IC50 means the concentration needed to halve the response being measured. In the case of `CCOC(=O)C1=C(COCCN)NC(C)=C(C(=O)OC)C1c1ccccc1Cl` (centres undefined) [AMLODIPINE], the IC50 is 3.13 µM with Leishmania braziliensis; 3.35 µM in the data set on Leishmania major; 2.61 µM with Leishmania chagasi [2]; 5.35 µM in the data set with Leishmania chagasi [4] (setting [8]); 2.93 µM in the data set with Leishmania amazonensis; 70.8 µM in the data set with LLC-MK2 (Macaca mulatta, LLC-MK2, 48 h). Besides, in the data set with Trypanosoma cruzi [5], half-maximal inhibition (IC50) was put at 8.07 µM. In addition, in [1], the Activity entry is recorded as “Non-toxic”. In addition, the selectivity ratio in data set [3] was 8.77; in data set [6] it was 13.2.
In the case of `CC1=C(C(=O)OC(C)C)C(c2cccc([N+](=O)[O-])c2)C(C(=O)OC2CN(C(c3ccccc3)c3ccccc3)C2)=C(N)N1` (centres undefined) [AZELNIDIPINE], the IC50 came out at 13.7 µM in the data set with Leishmania braziliensis; 17.1 µM in the data set with Leishmania major; 33.4 µM in the data set with Leishmania chagasi [2]; 20.5 µM in the data set on Leishmania amazonensis; 33.5 µM in the data set on LLC-MK2 (Macaca mulatta, LLC-MK2, 48 h); 2.9 µM in the data set on Trypanosoma cruzi [5]. For the same compound, the Activity entry in data set [1] is given as “Non-toxic”. For the same compound, the selectivity ratio in data set [3] came to 11.5.
Consider `O=C(Cn1ccnc1[N+](=O)[O-])NCc1ccccc1` [BENZNIDAZOLE], for which the Activity entry in data set [1] is “Non-toxic”. For the same compound, the IC50 with LLC-MK2 (Macaca mulatta, LLC-MK2, 48 h) was over 1370 µM; with Trypanosoma cruzi [5], 172 µM.
As for `COCCOC(=O)C1=C(C)NC(C)=C(C(=O)OC/C=C/c2ccccc2)C1c1cccc([N+](=O)[O-])c1` (centres undefined) [CILNIDIPINE], the concentration for half-maximal inhibition (IC50) in the data set with Leishmania braziliensis was 15.3 µM; in the data set on Leishmania major it was 21.4 µM; with Leishmania chagasi [2], 33 µM; in the data set with Leishmania chagasi [4] (setting [8]), 28.4 µM; in the data set on Leishmania amazonensis it was 111 µM; in the data set with LLC-MK2 (Macaca mulatta, LLC-MK2, 48 h) it was 222 µM. In the data set on Trypanosoma cruzi [5], this compound registered an IC50 of 5.62 µM. Further, the Activity entry in data set [1] is “Non-toxic”. Besides, the selectivity ratio in data set [3] worked out at 39.4; in data set [6] it was 7.79.
For the compound `COC(=O)C1=C(C)NC(C)=C(C(=O)OC(C)C)C1c1cccc2nonc12` (centres undefined) [ISRADIPINE], the Activity result in data set [1] was “Non-toxic”. The midpoint of inhibition with Trypanosoma cruzi [7], the IC50, lay at 20.8 µM.
The corresponding values for `CCOC(=O)C1=C(C)NC(C)=C(C(=O)OCC)C1c1ccccc1/C=C/C(=O)OC(C)(C)C` [LACIDIPINE] are “Non-toxic” and 33.5 µM.
Regarding `COC(=O)C1=C(C)NC(C)=C(C(=O)OC(C)(C)CN(C)CCC(c2ccccc2)c2ccccc2)C1c1cccc([N+](=O)[O-])c1` (centres undefined) [LERCANIDIPINE], the IC50 with Leishmania braziliensis was 10.3 µM; in the data set with Leishmania major, 11.6 µM; in the data set with Leishmania chagasi [2], 19.2 µM; with Leishmania chagasi [4] (setting [8]), 10.4 µM; in the data set with Leishmania amazonensis, 16.9 µM; in the data set on LLC-MK2 (Macaca mulatta, LLC-MK2, 48 h), 435 µM. Further, the IC50 with Trypanosoma cruzi [5] stood at 8.43 µM. Besides, the Activity entry in [1] was “Non-toxic”. The selectivity ratio in data set [3] amounted to 51.6; in [6], 42.
`COC(=O)C1=C(C)NC(C)=C(C(=O)OCCN(C)Cc2ccccc2)C1c1cccc([N+](=O)[O-])c1` (centres undefined) [NICARDIPINE]: the IC50 in the data set on Leishmania braziliensis was determined as 19.1 µM; in the data set with Leishmania major, 21.8 µM; in the data set on Leishmania chagasi [2] it was 35.7 µM; in the data set on Leishmania chagasi [4] (setting [8]), 22 µM; in the data set with Leishmania amazonensis, 26.5 µM; with LLC-MK2 (Macaca mulatta, LLC-MK2, 48 h) it was 71.6 µM. Moreover, in the data set on Trypanosoma cruzi [5], half-maximal inhibition (IC50) required 10.6 µM. Moreover, in data set [1], the Activity entry is “Non-toxic”. For the same compound, the selectivity ratio in data set [3] was determined as 6.76; in data set [6], 3.25.
Turning to `COC(=O)C1=C(C)NC(C)=C(C(=O)OC)C1c1ccccc1[N+](=O)[O-]` [NIFEDIPINE], the IC50 in the data set with Leishmania braziliensis came to 95.7 µM; with Leishmania major, 181 µM; in the data set with Leishmania chagasi [2], 146 µM; in the data set with Leishmania chagasi [4] (setting [8]) it was 176 µM; in the data set with Leishmania amazonensis, 118 µM; in the data set with LLC-MK2 (Macaca mulatta, LLC-MK2, 48 h), 589 µM. Also, the IC50 with Trypanosoma cruzi [5] worked out at 102 µM. Besides, the Activity entry in [1] is reported as “Non-toxic”. In addition, the selectivity ratio was determined as 5.78 in data set [3] and 4.21 in data set [6].
With `COCCOC(=O)C1=C(C)NC(C)=C(C(=O)OC(C)C)C1c1cccc([N+](=O)[O-])c1` (centres undefined) [NIMODIPINE], the half-inhibitory concentration (IC50) in the data set with Leishmania braziliensis amounted to 42.8 µM; in the data set on Leishmania major it was 31 µM; in the data set with Leishmania chagasi [2], 82.7 µM; with Leishmania chagasi [4] (setting [8]), 21.6 µM; in the data set with Leishmania amazonensis it was 128 µM; with LLC-MK2 (Macaca mulatta, LLC-MK2, 48 h), 96.2 µM. Moreover, the midpoint of inhibition in the data set on Trypanosoma cruzi [5], the IC50, lay at 32.3 µM. Further, the Activity result in data set [1] was “Non-toxic”. The results for the selectivity ratio in [3] and in data set [6] were 2.98 and 4.45, respectively.
For the compound `CCOC(=O)C1=C(C)NC(C)=C(C(=O)OC)C1c1cccc([N+](=O)[O-])c1` (centres undefined) [NITRENDIPINE], the IC50 amounted to 39 µM with Leishmania braziliensis; 33.3 µM in the data set on Leishmania major; 64.1 µM in the data set on Leishmania chagasi [2]; 43.8 µM with Leishmania chagasi [4] (setting [8]); 38.3 µM in the data set with Leishmania amazonensis; 138 µM with LLC-MK2 (Macaca mulatta, LLC-MK2, 48 h). In addition, the IC50 with Trypanosoma cruzi [5] was found to be 26.9 µM. Besides, the Activity result in [1] is “Non-toxic”. In addition, the selectivity ratio amounted to 5.12 in [3] and 3.14 in data set [6].
Consider `N=C(N)c1ccc(OCCCCCOc2ccc(C(=N)N)cc2)cc1` [PENTAMIDINE], for which the IC50 in the data set on Leishmania braziliensis was found to be 0.15 µM; in the data set on Leishmania major, 0.47 µM; in the data set with Leishmania chagasi [2], 1.11 µM; with Leishmania amazonensis, 0.49 µM; in the data set on LLC-MK2 (Macaca mulatta, LLC-MK2, 48 h), 25.6 µM. Moreover, the Activity entry in data set [1] is reported as “Non-toxic”.
For MEGLUMINE ANTIMONATE, the Activity result in [1] was “Non-toxic”. Moreover, the 50% inhibitory concentration (IC50) in the data set on Leishmania chagasi [4] was 82.3 µM; with LLC-MK2 (llc-mk2), over 1370 µM.
